{"source": "patent US12543738B2", "about": "(Bayer Aktiengesellschaft, priority 2020, dated 2026)", "note": "Marks after values point to notes of the source that are not given here."}
{"experiment": "Measurement of LogP values by HPLC on reversed phase columns (EEC directive 79/831 Annex V.A8)", "format": "physicochemical", "conditions": "not given", "procedure": "(§1) Calibration was done with straight-chain alkan2-ones (with 3 to 16 carbon atoms) with known LogP values (measurement of LogP values using retention times with linear interpolation between successive alkanones). Lambda-max-values were determined using UV-spectra from 200 nm to 400 nm and the peak values of the chromatographic signals"}
{"smiles": "Cc1cc(C(=O)O)c(Oc2cccc(Cl)c2)nn1", "note": "[Compound 1-01]", "LogP": "1.26^[a]"}
{"smiles": "Cc1cc(C(=O)O)c(Oc2cccc(C)c2F)nn1", "note": "[Compound 1-02]", "LogP": "1.32^[a]"}
{"smiles": "Cc1cc(C(=O)O)c(Oc2cccc(C3(F)CC3)c2)nn1", "note": "[Compound 1-05]", "LogP": "0.68^[a]"}
{"smiles": "Cc1cc(C(=O)OC(C)C)c(Oc2cccc(C3(F)CC3)c2)nn1", "note": "[Compound 1-06]", "LogP": "4.73^[a]"}
{"smiles": "Cc1ccc(CC(N)CON2C(=O)c3ccccc3C2=O)c(C)c1.O=C(O)C(F)(F)F", "note": "(stereo not drawn) [Compound 2-01]", "LogP": "1.55[a]"}
{"smiles": "O=C(NC(CON1C(=O)c2ccccc2C1=O)Cc1ccc(Cl)cc1Cl)c1cc(Cl)nnc1Oc1cccc(C2CC2)c1F", "note": "(stereo not drawn) [Compound 3-02]", "LogP": "5.27^[a]"}
{"smiles": "Cc1cc(C)cc(CC(N)CCl)c1.Cl", "note": "(stereo not drawn) [Compound 13-02]", "LogP": "1.32[a]"}
{"smiles": "Cc1ccc(C)c(CC(N)CCl)c1.Cl", "note": "(stereo not drawn) [Compound 13-03]", "LogP": "1.13[a]"}
{"smiles": "Cc1ccc(CC(N)CCl)c(C)c1.Cl", "note": "(stereo not drawn) [Compound 13-04]", "LogP": "1.24[a]"}
{"smiles": "Cc1ccc(CC(CCl)NC(=O)c2cc(C)nnc2Oc2cccc(Cl)c2)c(Br)c1", "note": "(stereo not drawn) [Compound 14-01]", "LogP": "4.51^[a]"}
{"smiles": "Cc1ccc(CC(CCl)NC(=O)c2cc(C)nnc2Oc2cccc(C)c2F)c(Cl)c1", "note": "(stereo not drawn) [Compound 14-02]", "LogP": "4.43^[a]"}
{"smiles": "Cc1cc(C)cc(CC(CCl)NC(=O)c2cc(C)nnc2Oc2cccc(C)c2F)c1", "note": "(stereo not drawn) [Compound 14-04]", "LogP": "4.47^[a]"}
{"smiles": "Cc1cc(C)cc(CC(CCl)NC(=O)c2cc(C)nnc2Oc2cccc(Cl)c2)c1", "note": "(stereo not drawn) [Compound 14-05]", "LogP": "4.51^[a]"}
{"smiles": "Cc1cc(C)cc(CC(CCl)NC(=O)c2cc(C)nnc2Oc2cccc(Cl)c2F)c1", "note": "(stereo not drawn) [Compound 14-06]", "LogP": "4.59^[a]"}
{"smiles": "Cc1ccc(C)c(CC(CCl)NC(=O)c2cc(C)nnc2Oc2cccc(Cl)c2F)c1", "note": "(stereo not drawn) [Compound 14-07]", "LogP": "4.42^[a]"}
{"smiles": "Cc1ccc(C)c(CC(CCl)NC(=O)c2cc(C)nnc2Oc2cccc(C)c2F)c1", "note": "(stereo not drawn) [Compound 14-08]", "LogP": "4.37^[a]"}
{"smiles": "Cc1ccc(C)c(CC(CCl)NC(=O)c2cc(C)nnc2Oc2cccc(Cl)c2)c1", "note": "(stereo not drawn) [Compound 14-09]", "LogP": "4.37^[a]"}
{"smiles": "Cc1ccc(CC(CCl)NC(=O)c2cc(C)nnc2Oc2cccc(C3(F)CC3)c2)c(C)c1", "note": "(stereo not drawn) [Compound 14-10]", "LogP": "4.58^[a]"}
{"smiles": "Cc1ccc(CC(CCl)NC(=O)c2cc(Cl)nnc2Oc2cccc(Cl)c2)c(Cl)c1", "note": "(stereo not drawn) [Compound 14-12]", "LogP": "4.97^[a]"}
{"smiles": "Cc1ccc(CC(CCl)NC(=NO)c2cc(C)nnc2Oc2cccc(Cl)c2)c(Br)c1", "note": "(stereo not drawn) [Compound 15-01]", "LogP": "3.84^[a]"}
{"smiles": "Cc1ccc(CC(CCl)NC(=NO)c2cc(C)nnc2Oc2cccc(C)c2F)c(Cl)c1", "note": "(stereo not drawn) [Compound 15-02]", "LogP": "3.75^[a]"}
{"smiles": "Cc1cc(C)cc(CC(CCl)NC(=NO)c2cc(C)nnc2Oc2cccc(Cl)c2F)c1", "note": "(stereo not drawn) [Compound 15-04]", "LogP": "3.98^[a]"}
{"smiles": "Cc1ccc(C)c(CC(CCl)NC(=NO)c2cc(C)nnc2Oc2cccc(Cl)c2F)c1", "note": "(stereo not drawn) [Compound 15-05]", "LogP": "3.84^[a]"}
{"smiles": "Cc1ccc(C)c(CC(CCl)NC(=NO)c2cc(C)nnc2Oc2cccc(C)c2F)c1", "note": "(stereo not drawn) [Compound 15-06]", "LogP": "3.74^[a]"}
{"smiles": "Cc1ccc(C)c(CC(CCl)NC(=NO)c2cc(C)nnc2Oc2cccc(Cl)c2)c1", "note": "(stereo not drawn) [Compound 15-07]", "LogP": "3.74^[a]"}
{"experiment": "Measurement of LogP values by HPLC on reversed phase columns (EEC directive 79/831 Annex V.A8)", "format": "physicochemical", "conditions": "method [a]: LC-UV, acidic range, 0.1% formic acid in water and acetonitrile; compounds of formula (I-1), Table 1", "procedure": "as §1"}
{"smiles": "Cc1ccc(CC2CON=C(c3cc(Cl)nnc3Oc3cccc(Cl)c3)N2)c(Cl)c1", "note": "(racemic) [Compound I-017, (5RS)-3-[6-chloro-3-(3-chlorophenoxy)pyridazin-4-yl]-5-(2-chloro-4-methylbenzyl)-5,6-dihydro-4H-1,2,4-oxadiazine]", "chromatographic logP": 4.44}
{"smiles": "Clc1ccc(CC2CON=C(c3cc(Cl)nnc3Oc3cccc(C4(Cl)CC4)c3)N2)c(Cl)c1", "note": "(racemic) [Compound I-024, (5RS)-3-{6-chloro-3-[3-(1-chlorocyclopropyl)phenoxy]pyridazin-4-yl}-5-(2,4-dichlorobenzyl)-5,6-dihydro-4H-1,2,4-oxadiazine]", "chromatographic logP": 4.93}
{"smiles": "Cc1ccc(C[C@H]2CON=C(c3cc(C(Cl)Cl)nnc3Oc3cccc(C4CC4)c3F)N2)c(C)c1", "note": "[Compound I-021, (5S)-3-[3-(3-cyclopropyl-2-fluorophenoxy)-6-(dichloromethyl)pyridazin-4-yl]-5-(2,4-dimethylbenzyl)-5,6-dihydro-4H-1,2,4-oxadiazine]", "chromatographic logP": 5.11}
{"experiment": "Measurement of LogP values by HPLC on reversed phase columns (EEC directive 79/831 Annex V.A8)", "format": "physicochemical", "conditions": "method [a]: LC-UV, acidic range, 0.1% formic acid; intermediates of formula (3), Table 7", "procedure": "as §1"}
{"smiles": "Cc1ccc(CC(CON2C(=O)c3ccccc3C2=O)NC(=O)c2cc(C)nnc2Oc2cccc(Cl)c2)c(C)c1", "note": "(racemic) [Compound 3-01, 3-(3-chlorophenoxy)-N-{(2RS)-1-(2,4-dimethylphenyl)-3-[(1,3-dioxo-1,3-dihydro-2H-isoindol-2-yl)oxy]propan-2-yl}-6-methylpyridazine-4-carboxamide]", "chromatographic logP": 4.47}
{"experiment": "Measurement of LogP values by HPLC on reversed phase columns (EEC directive 79/831 Annex V.A8)", "format": "physicochemical", "conditions": "method [a]: LC-UV, acidic range, 0.1% formic acid; intermediates of formula (4), Table 9", "procedure": "as §1"}
{"smiles": "Cc1ccc(CC(CON)NC(=O)c2cc(C)nnc2Oc2cccc(Cl)c2)c(C)c1", "note": "(racemic) [Compound 4-01, N-[(2RS)-1-(aminooxy)-3-(2,4-dimethylphenyl)propan-2-yl]-3-(3-chlorophenoxy)-6-methylpyridazine-4-carboxamide]", "chromatographic logP": 2.64}
{"smiles": "NOCC(Cc1ccc(Cl)cc1Cl)NC(=O)c1cc(Cl)nnc1Oc1cccc(C2CC2)c1F", "note": "(racemic) [Compound 4-02, 6-chloro-3-(3-cyclopropyl-2-fluoro-phenoxy)-N-[(1RS)-1-(aminooxymethyl)-2-(2,4-dichlorophenyl)ethyl]pyridazine-4-carboxamide]", "chromatographic logP": 3.7}
{"experiment": "Measurement of LogP values by HPLC on reversed phase columns (EEC directive 79/831 Annex V.A8)", "format": "physicochemical", "conditions": "method [a]: LC-UV, acidic range, 0.1% formic acid; intermediates of formula (14), Table 17", "procedure": "as §1"}
{"smiles": "Cc1ccc(CC(CCl)NC(=O)c2cc(C)nnc2Oc2cccc(Cl)c2)c(Cl)c1", "note": "(racemic) [Compound 14-03, N-[(2RS)-1-chloro-3-(2-chloro-4-methylphenyl)propan-2-yl]-3-(3-chlorophenoxy)-6-methylpyridazine-4-carboxamide]", "chromatographic logP": 4.43}
{"experiment": "Measurement of LogP values by HPLC on reversed phase columns (EEC directive 79/831 Annex V.A8)", "format": "physicochemical", "conditions": "method [a]: LC-UV, acidic range, 0.1% formic acid; intermediates of formula (15), Table 15", "procedure": "as §1"}
{"smiles": "Cc1ccc(CC(CCl)NC(=NO)c2cc(C)nnc2Oc2cccc(Cl)c2)c(Cl)c1", "note": "(racemic) [Compound 15-03]", "chromatographic logP": 3.78}
